Test results: article PMC9459017, “Pharmacokinetic and pharmacodynamic similarity evaluation between an insulin glargine biosimilar product and Lantus® in healthy subjects: Pharmacokinetic parameters of both parent insulin glargine and M1 were used as endpoints” (Frontiers in Pharmacology, 2022)

Assays:
[1] = acidic pH; precipitates in the subcutaneous tissue after injection to form a depot; ref Levien et al., 2002; cited from earlier work
Description: Then, the drug is slowly released from the depot. […] These observed phenomena are consistent with those of a previous study ([Bolli et al., 2012]). Based on the comparison ...

[2] = Matrix stability of insulin glargine in whole blood and plasma; type: in vitro ADME; settings: human whole blood and plasma; addressed by strict temperature control and EDTA anticoagulant during sample collection and pre-treatment
Description: The bioanalytical method applied in this study was with a relatively higher sensitivity of 75.0 pg/ml for the parent insulin glargine ([Bhatia et al., 2018]; [Crutchlow et al., 2018]). The instability of the insulin glargine in whole blood and plasma was addressed by strict temperature control and selection of EDTA anticoagulant during sample collection and pre-treatment. […] After subcutaneous injection, the concentrations of parent insulin glargine increased to a relatively high level within 3 h, and then, a relatively flat concentration–time profile lasting for at least 12 h post-dose was observed, which implied a prolonged absorption of insulin glargine.

[3] = parameters: species or system human; settings: in vivo, sc; for Tmax of the parent insulin glargine: human
Description: This PK/PD comparative study was a randomized, double-blind, single-dose, two-treatment, four-period, replicate crossover, euglycemic clamp study. Subjects were randomly assigned to one of two dosing sequences and received 0.4 U/kg reference drug on two occasions and 0.4 U/kg test drug on two occasions. The dosing nurses were not blind to the treatment allocation, whereas the subjects and the clamping operators (who adjusted the glucose infusion rate) were blinded. Subjects were admitted to the clinical research unit on the night before each period. On day 1 of each period, all doses of test and reference drug were administered by subcutaneous injection, and then, subjects underwent a euglycemic clamp procedure until 24 h post-dose. There was a washout period of 10–14 days between study periods. The test drug, manufactured by Wanbang Biopharmaceuticals, was supplied as a 100 U/ml solution in 3 ml cartridges. The reference drug was procured commercially as cartridges. The test drug or reference drug was administrated by subcutaneous injection using a pen about 5 cm from the left or right side of the umbilicus, as a 0.4 U/kg dose. In each period, serial blood samples for the quantification of insulin glargine, its metabolites (M1 and M2), and C-peptide were collected at 30 min prior to dosing and 0, 1, 3, 5, 6, 7, 8, 9, 10, 11, 12, 13, 14, 16, 18, 21, and 24 h after dose using vacuum tubes with an EDTA anticoagulant. Concentrations of insulin glargine and its metabolites (M1 and M2) in plasma were simultaneously quantified by an ultra-high-performance liquid chromatography tandem mass spectrometry (UHPLC-MS/MS) method developed and fully validated before the clinical sample analysis. […] Pharmacokinetic parameters were calculated with WinNonlin Version 8.2 (Pharsight Corporation, Mountain View, California, United States) using a non-compartmental analysis method. […] Time to reach Cmax (Tmax) was also calculated. […]

[4] = test system: healthy subjects; assay: Safety assessment in healthy subjects; settings: single 0.4 U/kg s.c. doses, healthy male subjects
Procedure: Prior to dose and at various time points post-dose and post-study, assessments of safety and tolerability were conducted by monitoring adverse events (AEs), vital signs, physical examinations, laboratory tests (hematology, blood biochemistry, urinalysis, and coagulation function), and 12-lead ECG.

[5] = test system: endogenous insulin; assay: Plasma C-peptide reduction during clamp (suppression of endogenous insulin); type: in vivo, human; settings: single 0.4 U/kg s.c., healthy volunteers, plasma C-peptide by ELISA during 24 h clamp, mean ± SD
Procedure: In each period, serial blood samples for the quantification of insulin glargine, its metabolites (M1 and M2), and C-peptide were collected at 30 min prior to dosing and 0, 1, 3, 5, 6, 7, 8, 9, 10, 11, 12, 13, 14, 16, 18, 21, and 24 h after dose using vacuum tubes with an EDTA anticoagulant.
C-peptide in plasma was quantified by a fully validated enzyme-linked immunosorbent assay (ELISA) method, of which the calibration range was 28.9–925 pmol/L.
C-peptide concentration was measured in parallel to insulin concentrations throughout the experiment to compare the extent and consistency of suppression of endogenous insulin between the two drugs.
The quality of the performance of the clamp study was estimated from two aspects. On one hand, the blood glucose level during the entire clamping process was evaluated by calculating the mean difference between the blood glucose concentration and the clamp target, mean square deviation, and coefficient of variation of the blood glucose concentrations. On the other hand, the plasma C-peptide concentration profiles and the ratio of C-peptide reduction were evaluated.

[6] = test system: healthy volunteers; assay: 24 h euglycemic clamp, glucose infusion rate (pharmacodynamics); type: in vivo, human; settings: single 0.4 U/kg s.c., N = 38; for AUCGIR(0–24 h), geometric mean / Time to GIRmax / AUCGIR(0–12 h), geometric mean / AUCGIR(12–24 h), geometric mean / GIRmax, geometric mean: healthy volunteers; for AUCGIR(0–24 h), geometric mean: 24 h euglycemic clamp 0.3 mmol/L below fasting glucose; for AUCGIR(0–24 h), geometric mean / AUCGIR(0–12 h), geometric mean / AUCGIR(12–24 h), geometric mean / GIRmax, geometric mean: raw GIR not smoothed; for Time to GIRmax / AUCGIR(0–12 h), geometric mean / AUCGIR(12–24 h), geometric mean / GIRmax, geometric mean: 24 h euglycemic clamp; for Time to GIRmax: median (range); for AUCGIR(0–12 h), intra-subject variability / AUCGIR(0–24 h), intra-subject variability / AUCGIR(12–24 h), intra-subject variability / GIRmax, intra-subject variability: replicate crossover
Description: This PK/PD comparative study was a randomized, double-blind, single-dose, two-treatment, four-period, replicate crossover, euglycemic clamp study. Subjects were randomly assigned to one of two dosing sequences and received 0.4 U/kg reference drug on two occasions and 0.4 U/kg test drug on two occasions. The dosing nurses were not blind to the treatment allocation, whereas the subjects and the clamping operators (who adjusted the glucose infusion rate) were blinded. Subjects were admitted to the clinical research unit on the night before each period. On day 1 of each period, all doses of test and reference drug were administered by subcutaneous injection, and then, subjects underwent a euglycemic clamp procedure until 24 h post-dose. There was a washout period of 10–14 days between study periods. For each subject, the 24 h euglycemic clamp procedure aimed to maintain the clamp value at 0.3 mmol/L below the subject’s mean fasting glucose level in each period. Each subject began fasting from 20:00 on the day prior to dosing in each period and continued fasting during the clamp study. Body weight and vital signs were measured after the bladder was emptied, and the clamp study was performed after resting for at least 30 min. One upper limb was cannulated for the infusion of glucose (20% dextrose solution in water). The contralateral upper limb was cannulated for PK blood sample collection and blood glucose concentration measurement. Blood glucose level was measured by using an automatic blood glucose analyzer every 20 min from 0 to 3.0 h, every 10 min from 3.0 to 12.0 h, every 15 min from 12.0 to 16.0 h, every 30 min from 16.0 to 21.0 h, and every 15 min from 21.0 to 24.0 h. After each glucose measurement, the glucose infusion rate (GIR) was manually adjusted by the operator based on the experience of the change rate of blood glucose to maintain the blood glucose concentration within ±10% of the clamp target. During the entire procedure, subjects should stay awake, decumbent, or semi-decumbent as much as possible and relieve themselves in time with the help of medical staff. PD parameters were calculated with WinNonlin Version 8.2 using the trapezoidal rule. Raw GIR profiles were not smoothed before calculation of PD parameters. Area under the glucose infusion rate–time curve (AUCGIR(0–24 h)) and peak of glucose infusion rate (GIRmax) were measured as primary endpoints. Partial area under the glucose infusion rate–time curve (AUCGIR(0–12 h) and AUCGIR(12–24 h)) was the secondary PD parameter. Another meaningful PD endpoint was time to GIRmax. The primary and secondary PD parameters, AUCGIR(0–24 h), GIRmax, AUCGIR(0–12 h), and AUCGIR(12–24 h), were log transformed prior to analysis. The same linear mixed-effects model as PK comparison was used for the PD comparison. For each PD parameter, the difference in geometric means along with the 90% CIs was back transformed to produce the ratio of geometric means and the CI comparing the test drug to reference drug. PD similarity was to be concluded if the […] for both primary and secondary PD parameters were contained within the interval of 80.00%–125.00%. Intra-subject and inter-subject variability were reported for each primary and secondary PD parameters.

[7] = test system: healthy volunteers; assay: as above; type: in vivo, human; settings: single 0.4 U/kg s.c., linear mixed-effects model, N = 38

| Substance | Solubility [1] | Stability in whole blood and plasma [2] | Duration of relatively flat concentration–time profile post-dose [3] | Clinically significant changes in vital signs, physical examinations, laboratory tests or 12-lead ECG [4] | Safety profiles with regard to AEs [4] | Tmax of the parent insulin glargine [3] | Ratio of C-peptide reduction [5] | AUCGIR(0–24 h), geometric mean [6] [mg/kg/min·h] | Time to GIRmax [6] | AUCGIR(0–12 h), geometric mean [6] [mg/kg/min·h] | AUCGIR(12–24 h), geometric mean [6] [mg/kg/min·h] | GIRmax, geometric mean [6] [mg/kg/min] | AUCGIR(0–12 h), intra-subject variability [6] [%] | AUCGIR(0–24 h), intra-subject variability [6] [%] | AUCGIR(12–24 h), intra-subject variability [6] [%] | GIRmax, intra-subject variability [6] [%] | AUCGIR(0–12 h), ratio of geometric means test/reference [7] [%] | AUCGIR(0–24 h), ratio of geometric means test/reference [7] [%] | AUCGIR(12–24 h), ratio of geometric means test/reference [7] [%] | GIRmax, ratio of geometric means test/reference [7] [%] |
| --- | --- | --- | --- | --- | --- | --- | --- | --- | --- | --- | --- | --- | --- | --- | --- | --- | --- | --- | --- | --- |
| insulin glargine | soluble at an acidic pH | instability | at least 12 h | – | – | – | – | – | – | – | – | – | – | – | – | – | – | – | – | – |
| Lantus [Reference drug] | – | – | – | no changes | comparable | 3 (1,16) h | 57.5% ± 14.4 | 34.4 | 11.8 (4, 19.0) | 13.45 | 21.19 | 2.54 | 39.0 | 28.3 | 20.2 | 25.5 | – | – | – | – |
| recombinant insulin glargine [Test drug] | – | – | – | – | – | 8 (1,16) h | 56.5% ± 14.1 | 36.3 | 12.3 (3.85, 21.5) | 13.52 | 22.45 | 2.66 | 70.7 | 36.4 | 27.3 | 26.5 | 100.52 | 105.41 | 105.91 | 105.00 |
